Measured values taken from patent publication US20230192644A1, “PIPERIDINE-2,6-DIONES AS SMALL MOLECULE DEGRADERS OF HELIOS AND METHODS OF USE” (DANA-FARBER CANCER INSTITUTE, INC., priority 2020, published 2023).
Where two headings read alike, the source gives them in different places.

Tests used:
Type in all cases: cell-based
[1] = target: T1, IKZF1 (Homo sapiens, UniProt Q13422); test: GFP-IKZF1 cellular degradation assay (eGFP fusion/mCherry reporter, Flip-In 293 cells)
T1 construct: expressed in transfected cells
Method: IKZF1A and IKZF2A were subcloned into mammalian pcDNA5/FRT Vector (Ampicillin and Hygromycin B resistant) modified to contain MCS-eGFP-P2A-mCherry. […] Following 2-3 passage cycle, FACS (FACSAria™ II, BD) was used to enrich for cells expressing eGFP and mCherry.
(§1) Cells stably expressing the IKZF1A, or IKZF2A GFP fusions with mCherry reporter were seeded at 30-50% confluency in 384-well plates with 50 μL FluoroBrite™ DMEM media (Thermo Fisher Scientific™ A18967) containing 10% FBS per well a day before compound treatment. Compound titrations were dispensed using a D300e Digital Dispenser (HP), normalized to 0.5% DMSO, and incubated with cells for 5 hours.
The assay plate was imaged immediately using an Acumen High Content Imager (TTP Labtech) with 488 nm and 561 nm lasers in 2 μm×1 μm grid per well format. […] A series of image analysis steps (‘image analysis pipeline’) was constructed. First, the red and green channels were aligned and cropped to target the middle of each well (to avoid analysis of heavily clumped cells at the edges), and a background illumination function was calculated for both red and green channels of each well individually and subtracted to correct for illumination variations across the 384-well plate from various sources of error. An additional step was then applied to the green channel to suppress the analysis of large auto fluorescent artifacts and enhance the analysis of cell specific fluorescence by way of selecting for objects under a given size, 30 A.U., and with a given shape, speckles. mCherry-positive cells were then identified in the red channel filtering for objects between 8-60 pixels in diameter and using intensity to distinguish between clumped objects. The green channel was then segmented into GFP positive and negative areas and objects were labeled as GFP positive if at least 40% of it overlapped with a GFP positive area. The fraction of GFP-positive cells/mCherry-positive cells in each well was then calculated, and the green and red images were rescaled for visualization. The concentrations that lead to half degradation at 5 h (DC50, 5h) were calculated using the nonlinear fit variable slope model (GraphPad Software).

[2] = test system: IKZF2; test: GFP-IKZF2 cellular degradation assay (eGFP fusion/mCherry reporter, Flip-In 293 cells); settings: Flip-In 293 cells stably expressing IKZF2 GFP fusion with mCherry reporter, 5 h
Method: IKZF1A and IKZF2A were subcloned into mammalian pcDNA5/FRT Vector (Ampicillin and Hygromycin B resistant) modified to contain MCS-eGFP-P2A-mCherry. Stable cell lines expressing eGFP-protein fusion and mCherry reporter were generated using Flip-In 293 system. Plasmid (0.3 μg) and pOG44 (4.7 μg) DNA were preincubated in 100 μL of Opti-MEM™ I (Gibco™, Life Technologies™) media containing 0.05 mg/mL Lipofectamine™ 2000 (Invitrogen™) for 20 min and added to Flip-In 293 cells containing 1.9 mL of DMEM media (Gibco™, Life Technologies™) per well in a 6-well plate format (Falcon, 353046). Cells were propagated for 48 h and were then transferred into a 10 cm^2 plate (Corning, 430165) in DMEM media containing 50 μg/mL of Hygromycin B (REF 10687010, Invitrogen™) as a selection marker. Following 2-3 passage cycle, FACS (FACSAria™ II, BD) was used to enrich for cells expressing eGFP and mCherry.
as §1
The assay plate was imaged immediately using an Acumen High Content Imager (TTP Labtech) with 488 nm and 561 nm lasers in […] per well format. The resulting images were analyzed using CellProfiler (Carpenter et al., Genome Biol. 2006, 7:R100). A series of image analysis steps (‘image analysis pipeline’) was constructed. First, the red and green channels were aligned and cropped to target the middle of each well (to avoid analysis of heavily clumped cells at the edges), and a background illumination function was calculated for both red and green channels of each well individually and subtracted to correct for illumination variations across the 384-well plate from various sources of error. An additional step was then applied to the green channel to suppress the analysis of large auto fluorescent artifacts and enhance the analysis of cell specific fluorescence by way of selecting for objects under a given size, 30 A.U., and with a given shape, speckles. mCherry-positive cells were then identified in the red channel filtering for objects between 8-60 pixels in diameter and using intensity to distinguish between clumped objects. The green channel was then segmented into GFP positive and negative areas and objects were labeled as GFP positive if at least 40% of it overlapped with a GFP positive area. The fraction of GFP-positive cells/mCherry-positive cells in each well was then calculated, and the green and red images were rescaled for visualization. The concentrations that lead to half degradation at 5 h (DC50, 5h) were calculated using the nonlinear fit variable slope model (GraphPad Software).

[3] = target: T2, IKZF1 (Homo sapiens, UniProt Q13422+Q96SW2); test: HiBit-IKZF1 degradation assay in Molt4 cells
T2 construct: knocked into the endogenous IKZF2 or IKZF1 locus of Molt4 cells; endogenous in cells; host or cells: Molt4 (CRISPR/Cas9 HiBit knock-in)
Method: (§2) The HiBit tag was knocked into the endogenous IKZF2 or IKZF1 locus of Molt4 cells to generate a HiBit-IKZF2 or HiBit-IKZF1 fusion proteins via CRISPR/Cas9 gene editing. Cells were then treated with a 12 point concentration curve of the indicated compounds, and luminescence (corresponding to Helios abundance) was detected after 6 hours using the Nano-Glo® HiBit Lytic Detection system (Promega™). The concentration necessary to achieve 50% degradation (DC50) was calculated using Prism (GraphPad).

[4] = target: T3, IKZF2 (Homo sapiens, UniProt Q96SW2+Q9UKS7); test: HiBit-IKZF2 degradation assay in Molt4 cells
T3 construct: knocked into the endogenous IKZF2 or IKZF1 locus of Molt4 cells; endogenous in cells; host or cells: Molt4 (CRISPR/Cas9 HiBit knock-in)
Method: as §2

[5] = Flip-In 293 cells stably expressing IKZF1 GFP fusion with mCherry reporter, 5 h; read-out: GFP IKZF1 DC50
[6] = read-out: GFP IKZF1 DC50; Flip-In 293 cells stably expressing IKZF1 GFP fusion with mCherry reporter, 5 h
[7] = read-out: IKZF1 DC50; Molt4 cells with endogenous HiBit-IKZF1 knock-in, 6 hours, Nano-Glo HiBit luminescence
[8] = read-out: IKZF2 DC50; Molt4 cells with endogenous HiBit-IKZF2 knock-in, 6 hours, Nano-Glo HiBit luminescence

T2 sequence (Q13422 whole entry): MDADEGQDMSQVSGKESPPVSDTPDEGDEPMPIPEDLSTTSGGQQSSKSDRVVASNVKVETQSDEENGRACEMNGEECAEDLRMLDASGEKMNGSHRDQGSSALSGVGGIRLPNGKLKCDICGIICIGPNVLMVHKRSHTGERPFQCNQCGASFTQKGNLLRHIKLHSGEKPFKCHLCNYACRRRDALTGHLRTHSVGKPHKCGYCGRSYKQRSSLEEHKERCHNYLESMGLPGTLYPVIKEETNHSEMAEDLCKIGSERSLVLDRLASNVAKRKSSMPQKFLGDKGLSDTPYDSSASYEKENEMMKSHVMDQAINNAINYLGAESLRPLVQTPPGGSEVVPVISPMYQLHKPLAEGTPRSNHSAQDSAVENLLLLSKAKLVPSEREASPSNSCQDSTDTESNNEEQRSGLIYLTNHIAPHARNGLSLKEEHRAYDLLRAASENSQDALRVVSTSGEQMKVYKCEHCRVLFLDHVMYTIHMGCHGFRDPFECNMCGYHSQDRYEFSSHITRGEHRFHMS
T2 sequence (Q96SW2 whole entry): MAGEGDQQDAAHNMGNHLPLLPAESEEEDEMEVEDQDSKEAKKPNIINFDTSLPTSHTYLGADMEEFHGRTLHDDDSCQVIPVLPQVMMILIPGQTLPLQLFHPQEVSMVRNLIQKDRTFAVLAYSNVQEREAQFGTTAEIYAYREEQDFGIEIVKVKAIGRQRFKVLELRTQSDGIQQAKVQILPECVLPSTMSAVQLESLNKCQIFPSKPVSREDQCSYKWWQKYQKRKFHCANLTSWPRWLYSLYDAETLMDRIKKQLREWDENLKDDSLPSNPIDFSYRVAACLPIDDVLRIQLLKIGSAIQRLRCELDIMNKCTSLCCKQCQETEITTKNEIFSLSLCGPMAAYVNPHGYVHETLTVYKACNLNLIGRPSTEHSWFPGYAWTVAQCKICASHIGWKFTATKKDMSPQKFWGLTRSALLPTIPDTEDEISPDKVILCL
T2 sequence (Q16531 whole entry partner): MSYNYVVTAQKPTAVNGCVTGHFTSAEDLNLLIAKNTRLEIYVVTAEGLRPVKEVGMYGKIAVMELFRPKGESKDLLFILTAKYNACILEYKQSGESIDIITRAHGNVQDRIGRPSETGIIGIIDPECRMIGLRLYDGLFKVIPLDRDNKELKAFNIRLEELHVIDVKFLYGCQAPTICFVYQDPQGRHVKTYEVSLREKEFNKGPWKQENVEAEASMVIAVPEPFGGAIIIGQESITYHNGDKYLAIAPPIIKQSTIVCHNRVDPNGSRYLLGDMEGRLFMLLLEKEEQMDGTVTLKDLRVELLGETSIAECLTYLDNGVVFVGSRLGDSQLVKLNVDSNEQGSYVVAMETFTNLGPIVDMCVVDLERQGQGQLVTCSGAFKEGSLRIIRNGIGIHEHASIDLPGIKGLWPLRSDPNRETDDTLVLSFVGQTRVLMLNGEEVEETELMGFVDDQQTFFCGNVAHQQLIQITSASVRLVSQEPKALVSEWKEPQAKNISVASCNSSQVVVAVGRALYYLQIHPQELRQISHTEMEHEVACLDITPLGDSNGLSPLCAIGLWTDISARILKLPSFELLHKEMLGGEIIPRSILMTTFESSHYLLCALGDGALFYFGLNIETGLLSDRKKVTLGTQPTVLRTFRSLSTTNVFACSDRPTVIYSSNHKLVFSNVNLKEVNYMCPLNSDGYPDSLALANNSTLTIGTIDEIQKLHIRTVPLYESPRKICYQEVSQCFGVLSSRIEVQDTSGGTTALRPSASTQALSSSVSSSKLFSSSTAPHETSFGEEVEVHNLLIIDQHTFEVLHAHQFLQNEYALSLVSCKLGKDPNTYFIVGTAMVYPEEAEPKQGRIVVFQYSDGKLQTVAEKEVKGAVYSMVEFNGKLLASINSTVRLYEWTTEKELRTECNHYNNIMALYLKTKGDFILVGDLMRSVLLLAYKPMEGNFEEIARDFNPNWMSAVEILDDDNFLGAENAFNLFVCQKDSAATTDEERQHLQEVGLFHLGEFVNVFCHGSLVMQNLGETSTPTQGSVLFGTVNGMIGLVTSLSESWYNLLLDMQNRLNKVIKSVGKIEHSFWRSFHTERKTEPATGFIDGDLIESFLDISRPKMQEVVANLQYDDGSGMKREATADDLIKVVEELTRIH
T3 sequence (Q9UKS7 whole entry): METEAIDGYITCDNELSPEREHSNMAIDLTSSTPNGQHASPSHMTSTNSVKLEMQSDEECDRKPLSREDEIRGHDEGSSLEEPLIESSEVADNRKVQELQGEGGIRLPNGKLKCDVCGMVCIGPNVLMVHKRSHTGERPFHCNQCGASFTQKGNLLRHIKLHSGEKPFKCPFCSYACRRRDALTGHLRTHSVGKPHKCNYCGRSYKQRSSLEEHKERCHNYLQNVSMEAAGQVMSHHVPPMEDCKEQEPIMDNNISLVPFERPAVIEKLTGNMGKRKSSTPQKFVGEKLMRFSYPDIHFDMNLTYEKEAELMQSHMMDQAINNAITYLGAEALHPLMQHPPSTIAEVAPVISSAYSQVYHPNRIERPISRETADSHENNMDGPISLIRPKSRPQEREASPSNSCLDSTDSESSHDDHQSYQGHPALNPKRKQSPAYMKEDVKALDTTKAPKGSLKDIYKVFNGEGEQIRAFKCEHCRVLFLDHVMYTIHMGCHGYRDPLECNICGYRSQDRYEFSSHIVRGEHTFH
T3 sequence (Q96SW2 whole entry): as the sequence (Q96SW2 whole entry) above
T3 sequence (Q16531 whole entry partner): as the sequence (Q16531 whole entry partner) above
T1 sequence (Q13422 83-213 isoform Q13422-7 limits assumed): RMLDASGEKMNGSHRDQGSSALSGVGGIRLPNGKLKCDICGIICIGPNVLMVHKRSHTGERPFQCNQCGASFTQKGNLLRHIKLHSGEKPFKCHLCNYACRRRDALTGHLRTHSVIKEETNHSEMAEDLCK
T1 sequence (Q96SW2 whole entry partner, the tested form may be a part): as the sequence (Q96SW2 whole entry) above
T1 sequence (Q16531 whole entry partner, the tested form may be a part): as the sequence (Q16531 whole entry partner) above

| DC50 [1, 5] [nM] | DC50 [2] [nM] | SMILES | further results |
| --- | --- | --- | --- |
| 23 | 48 | CC(CC(=O)Nc1cccnc1Cl)c1cccc(NC2=CC(=O)N(C3CCC(=O)NC3=O)C2=O)c1 (centres unmarked) [Compound 7] | – |
| 10 | 17 | CC(CC(=O)Nc1ccc(Cl)nc1)c1cccc(NC2=CC(=O)N(C3CCC(=O)NC3=O)C2=O)c1 (centres unmarked) [Compound 8] | – |
| 80 | 85 | CC(CC(=O)Nc1ccnc(Cl)c1)c1cccc(NC2=CC(=O)N(C3CCC(=O)NC3=O)C2=O)c1 (centres unmarked) [Compound 9] | – |
| 39 | 8.8 | Cc1ccc(NC(=O)CC2(c3cccc(NC4=CC(=O)N(C5CCC(=O)NC5=O)C4=O)c3)CCOCC2)cc1Cl (centres unmarked) [Compound 18] | – |
| 2 | 4.4 | Cc1ccc(NC(=O)C2CC2c2cccc(NC3=CC(=O)N(C4CCC(=O)NC4=O)C3=O)c2)cc1Cl (centres unmarked) [Compound 21] | – |
| 14 | 134 | O=C1CCC(N2C(=O)C=C(Nc3cccc(C4CC(C(=O)Nc5cccc(C(F)(F)F)c5)C4)c3)C2=O)C(=O)N1 (centres unmarked) [Compound 22] | – |
| 38 | 101 | O=C1CCC(N2C(=O)C=C(Nc3cccc([C@H]4CNCC4C(=O)Nc4cccc(C(F)(F)F)c4)c3)C2=O)C(=O)N1 (some centres unmarked) [Compound 23] | – |
| 5.8 | 13 | CC(c1cccc(NC2=CC(=O)N(C3CCC(=O)NC3=O)C2=O)c1)N1CC(c2ccccc2)C1 (centres unmarked) [Compound 25] | – |
| 2.8 | 8.9 | CC(c1cccc(NC2=CC(=O)N(C3CCC(=O)NC3=O)C2=O)c1)N1CC(Cc2ccccc2)C1 (centres unmarked) [Compound 26] | – |
| 6.4 | 19 | CC(c1cccc(NC2=CC(=O)N(C3CCC(=O)NC3=O)C2=O)c1)N1CC(Oc2ccccc2)C1 (centres unmarked) [Compound 27] | – |
| 50 | 2.2 | Cc1ccc(NC(=O)CC(c2cccc(NC3=CC(=O)N(C4CCC(=O)NC4=O)C3=O)c2)C(C)C)cc1Cl (centres unmarked) [Compound 30, N-(3-chloro-4-methylphenyl)-3-(3-((1-(2,6-dioxopiperidin-3-yl)-2,5-dioxo-2,5-dihydro-1H-pyrrol-3-yl)amino)phenyl)-4-methylpentanamide] | – |
| 6.8 | 9.2 | CC(C)(NCc1cccc(C(F)(F)F)c1)c1cccc(NC2=CC(=O)N(C3CCC(=O)NC3=O)C2=O)c1 (centres unmarked) [Compound 64] | – |
| 11 | 12 | CN(CCc1ccc(C(F)(F)F)c(Cl)c1)C(C)(C)c1cccc(NC2=CC(=O)N(C3CCC(=O)NC3=O)C2=O)c1 (centres unmarked) [Compound 67, 3-(3-((3-(2-((3-chloro-4-(trifluoromethyl)phenethyl)(methyl)amino)propan-2-yl)phenyl)-amino)-2,5-dioxo-2,5-dihydro-1H-pyrrol-1-yl)piperidine-2,6-dione] | DC50 ([3]; Molt4 cells with endogenous HiBit-IKZF1 knock-in, 6 hours, Nano-Glo HiBit luminescence; read-out: IKZF1 DC50): 47 nM; DC50 ([4]; Molt4 cells with endogenous HiBit-IKZF2 knock-in, 6 hours, Nano-Glo HiBit luminescence; read-out: IKZF2 DC50): 25 nM |
| 5.2 | 4.4 | CN(C)CC(CC(=O)Nc1ccc(C(F)(F)F)c(Cl)c1)c1cccc(NC2=CC(=O)N(C3CCC(=O)NC3=O)C2=O)c1 (centres unmarked) [Compound 73, N-(3-chloro-4-(trifluoromethyl)phenyl)-4-(dimethylamino)-3-(3-((1-(2,6-dioxopiperidin-3-yl)-2,5-dioxo-2,5-dihydro-1H-pyrrol-3-yl)amino)phenyl)butanamide] | – |
| 50 | 24 | CC(C)(CCNc1ccc(C(F)(F)F)c(Cl)c1)c1cccc(NC2=CC(=O)N(C3CCC(=O)NC3=O)C2=O)c1 (centres unmarked) [Compound 80, 3-(3-((3-(4-((3-chloro-4-(trifluoromethyl)phenyl)amino)-2-methylbutan-2-yl)phenyl)amino)-2,5-dioxo-2,5-dihydro-1H-pyrrol-1-yl)piperidine-2,6-dione] | – |

| SMILES | DC50 [1, 5] [nM] | DC50 [2] [nM] | further results |
| --- | --- | --- | --- |
| Cc1ccc(NC(=O)CN(C)c2cccc(NC3=CC(=O)N(C4CCC(=O)NC4=O)C3=O)c2)cc1Cl (centres unmarked) [Compound 44, N-(3-chloro-4-methylphenyl)-2-[(3-{[1-(2,6-dioxopiperidin-3-yl)-2,5-dioxo-2,5-dihydro-1H-pyrrol-3-yl]amino}phenyl)(methyl)amino]acetamide] | 3.7 | 6.9 | – |
| CN(CCc1ccc(C(F)(F)F)c(Cl)c1)Cc1cccc(NC2=CC(=O)N(C3CCC(=O)NC3=O)C2=O)c1 (centres unmarked) [Compound 48, 3-(3-((-(((3-chloro-4-(trifluoromethyl)phenethyl)(methyl)amino)methyl)phenyl)amino)-2,5-dioxo-2,5-dihydro-1H-pyrrol-1-yl)piperidine-2,6-dione] | – | 19 | DC50 [1, 6]: 3.7 nM |
| CCC(NCCc1ccc(C(F)(F)F)c(Cl)c1)c1cccc(NC2=CC(=O)N(C3CCC(=O)NC3=O)C2=O)c1 (centres unmarked) [Compound 60, 3-(3-((3-(1-((3-chloro-4-(trifluoromethyl)phenethyl)-amino)propyl)phenyl)amino)-2,5-dioxo-2,5-dihydro-1H-pyrrol-1-yl)piperidine-2,6-dione] | – | 6 | DC50 [3, 7]: 240 nM; DC50 [4, 8]: 42 nM; DC50 [1, 6]: 18 nM |
| CC(C)(NCCc1ccc(C(F)(F)F)c(Cl)c1)c1cccc(NC2=CC(=O)N(C3CCC(=O)NC3=O)C2=O)c1 (centres unmarked) [Compound 66, 3-(3-((3-(2-((3-chloro-4-(trifluoromethyl)phenethyl)amino)propan-2-yl)phenyl)amino)-2,5-dioxo-2,5-dihydro-1H-pyrrol-1-yl)piperidine-2,6-dione] | – | 1.2 | DC50 [3, 7]: 3.8 nM; DC50 [4, 8]: 2.3 nM; DC50 [1, 6]: 1.1 nM |
